Reference: patent US20140336267A1, “UTILIZATION OF THE FUNCTION OF RARE SUGAR AS PROMOTER FOR THE MIGRATION OF GLUCOKINASE FROM NUCLEUS TO CYTOPLASM” (NATIONAL UNIVERSITY CORPORATION KAGAWA UNIVERSITY, priority 2006, published 2014)

Assays:
[1] = target: T1, glucokinase (Rattus norvegicus, UniProt P17712); experiment: Hepatic glucokinase transfer from nucleus to cytoplasm in Goto-Kakizaki rats (type 2 diabetes model); assay type: in vivo
T1 construct: stained by a fluorescence antibody method using an anti-glucokinase antibody; endogenous in cells; host or cells: primary culture of hepatocytes from male Wistar rats
T1 sequence (P17712 1-465 isoform P17712-3): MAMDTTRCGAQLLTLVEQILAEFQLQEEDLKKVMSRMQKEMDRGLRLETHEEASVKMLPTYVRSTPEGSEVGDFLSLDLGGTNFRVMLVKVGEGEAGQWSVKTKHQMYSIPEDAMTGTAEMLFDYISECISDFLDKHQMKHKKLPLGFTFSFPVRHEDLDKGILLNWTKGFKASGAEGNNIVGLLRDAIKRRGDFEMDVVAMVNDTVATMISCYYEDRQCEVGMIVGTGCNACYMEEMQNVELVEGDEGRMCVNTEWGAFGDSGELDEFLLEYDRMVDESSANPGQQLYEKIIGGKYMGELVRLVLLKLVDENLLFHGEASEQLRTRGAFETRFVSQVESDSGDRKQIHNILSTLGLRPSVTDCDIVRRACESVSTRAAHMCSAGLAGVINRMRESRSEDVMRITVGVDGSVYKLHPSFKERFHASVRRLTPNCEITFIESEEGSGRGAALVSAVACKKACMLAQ
Method: The action of suppressing blood glucose increase with D-fructose at a low concentration was examined. To Goto-Kakizaki rats as a model animal of type 2 diabetes mellitus, D-glucose to 2 g/[…] or D-glucose to 2 g/l kg body weight+D-fructose to 0.2 g/1 kg body weight was administered orally, to examine the modification of glucokinase transfer from the nucleus to the cytoplasm in hepatocytes and the change of the blood glucose levels in the portal vein and the tail vein.
2 g/kg D-glucose is orally given to male Goto-Kakizaki rats starved overnight. Simultaneously, 0.2 g/kg D-psicose was orally given. Thirty minutes later and 60 minutes later, the rats were perfused and fixed with 4% para-formaldehyde under anesthesia, from which liver was immediately resected to prepare frozen sections. The distribution of hepatic glucokinase in nucleus and cytoplasm was analyzed with the fluorescence antibody method using an anti-glucokinase antibody. Simultaneously, blood was drawn out from the tail vein and the portal vein, to assay blood glucose level and insulin concentration. Herein, liver is divided in the portal vein region and the central vein region of liver. It has been known that the activity of glucokinase in the central vein region is higher by 1.3 fold to 1.5 fold than the activity thereof in the portal vein region. Therefore, the glucokinase distributions in the nucleus and the cytoplasm in the central vein region and the portal vein region were analyzed.

[2] = system: hepatocytes; experiment: Glycogen synthesis in cultured hepatocytes; assay type: cell-based, rat; conditions: MEM culture medium containing 5 mM or 25 mM D-glucose
Method: (§1) Cultured hepatocytes were incubated in an MEM culture medium containing 5 mM or 25 mM D-glucose with an action of promoting glucokinase transfer from nucleus to cytoplasm. Glucokinase transfer from nucleus to cytoplasm, glycogen synthesis and lactic acid generation were increased. Via glucose, glucokinase transfer from nucleus to cytoplasm occurs, which raises cytoplasmic glucokinase activity to possibly promote the sugar metabolism in liver. […] (FIGS. 4, 6, 7 and 8)

[3] = target: T1, glucokinase; experiment: Glucokinase distribution in primary hepatocytes with D-glucose and D-fructose (fluorescence antibody method); assay type: cell-based
Method: In the presence of 5 mM D-glucose, glucokinase mainly existed in the cell nucleus.
as §1

[4] = system: hepatocytes; experiment: Lactic acid generation in hepatocytes; assay type: cell-based, rat; conditions: MEM culture medium containing 5 mM or 25 mM D-glucose
Method: […] As a control, DMSO was added.
as §1

[5] = target: T1, glucokinase; experiment: Hepatic glucokinase transfer from nucleus to cytoplasm after oral sugar given with D-glucose, Wistar rats (Example 3); assay type: in vivo; conditions: Wistar rats starved overnight; 2 g/kg D-glucose oral alone; 30 minutes later
Method: Male Wistar rats starved overnight were given 2 g/kg D-glucose orally. Simultaneously, 0.2 g/kg D-psicose, D-fructose or a mixture of D-psicose and D-fructose at 1:3 were given orally. Thirty minutes later, the rats were perfused and fixed with 4% para-formaldehyde under anesthesia, from which liver was immediately resected to prepare frozen sections. The distribution of glucokinase in the nucleus and the cytoplasm was analyzed with the fluorescence antibody method using an anti-glucokinase antibody. Simultaneously, blood was drawn out from the tail vein and the portal vein, to assay blood glucose levels.

[6] = 2 g/kg D-glucose oral alone, 30 and 60 minutes, vs starved

With O=C[C@H](O)[C@@H](O)[C@H](O)[C@H](O)CO [D-glucose] the “glucokinase fluorescence in the cytoplasm (liver)” value [1, 6] was “fluorescence in the cytoplasm was inversely increased”, the “glucokinase fluorescence in the nucleus (liver)” value [1, 6] was “Fluorescence in the nucleus was reduced” and the “glucokinase transfer from the nucleus to the cytoplasm in hepatocytes” value ([1]; oral D-glucose alone) was “glucokinase transferred from the nucleus to the cytoplasm”. For the same compound, the “cytoplasmic glucokinase level (fluorescence intensity analysis)” value ([1]; oral D-glucose vs 24-hour fasting, central vein and portal vein regions) was “significantly increased”, the glycogen synthesis [2] was “increased” and the cytoplasmic glucokinase ([3]; 25 mM D-glucose, 37° C. for 30 minutes, vs 5 mM D-glucose) was “the cytoplasmic glucokinase was increased”. The “glucokinase transfer from nucleus to cytoplasm” value ([3]; MEM culture medium containing 5 mM or 25 mM D-glucose) was “increased”, the lactic acid generation [4] was “increased” and the “glucokinase transfer from the nucleus to the cytoplasm in hepatocytes” value [5] was “glucokinase transfer from the nucleus to the cytoplasm occurred slightly”.
